Laboratory results taken from patent US5563155A, “Individual stereosiomers of 7-[3-(aminoalkyl)-1-pyrrolidinyl]-quinolones and naphthyridones as antibacterial agents” (Warner-Lambert Company, priority 1995, dated 1996).
In brackets after ≈: the same amount, converted by molar mass. Where a name gives a salt, the structure may show the parent alone. Read-outs that look alike come from different tables or passages of the source.

Experiments:
Ent. cloacae MA2646 = test: in vitro antibacterial activity, microtitration dilution (MIC), Ent. cloacae MA2646; assay type: cell-based; conditions: Enterobacter cloacae, read-out: minimum inhibiting concentration (MIC)
Excerpt: (§1) The in vitro antibacterial activity, is obtained by the microtitration dilution method as described in Heifetz, et al., Antimicr. Agents & Chemother., 6, 124 (1974), which is incorporated herein by reference.
(§2) By use of the above methods, the following minimum inhibiting concentration values (MICs in μg/mL), PD50 's in mg/kg, no effect phototoxicity dose in mg/kg and the cytotoxicity IC50 in μg/mL were obtained for representative enantiomers of the invention and compounds of the prior art as shown in the table.

Klebs. pneumoniae MGH-2 = test: in vitro antibacterial activity, microtitration dilution (MIC), Klebs. pneumoniae MGH-2; assay type: cell-based; conditions: Klebsiella pneumoniae, MGH2, read-out: minimum inhibiting concentration (MIC)
Excerpt: as §1, §2

Prot. rettgeri M 1771 = test: in vitro antibacterial activity, microtitration dilution (MIC), Prot. rettgeri M 1771; assay type: cell-based; conditions: Providencia rettgeri, M1771, read-out: minimum inhibiting concentration (MIC)
Excerpt: as §1, §2

Pseud. aeruginosa UI-18 = test: in vitro antibacterial activity, microtitration dilution (MIC), Pseud. aeruginosa UI-18; assay type: cell-based; conditions: Pseudomonas aeruginosa, UI18, read-out: minimum inhibiting concentration (MIC)
Excerpt: as §1, §2

Staph. aureus H 228 = test: in vitro antibacterial activity, microtitration dilution (MIC), Staph. aureus H 228; assay type: cell-based; conditions: Staphylococcus aureus, H228, read-out: minimum inhibiting concentration (MIC)
Excerpt: as §1, §2

Staph. aureus UC-76 = test: in vitro antibacterial activity, microtitration dilution (MIC), Staph. aureus UC-76; assay type: cell-based; conditions: Staphylococcus aureus, UC76, read-out: minimum inhibiting concentration (MIC)
Excerpt: as §1, §2

Strep. faecalis MGH-2 = test: in vitro antibacterial activity, microtitration dilution (MIC), Strep. faecalis MGH-2; assay type: cell-based; conditions: Enterococcus faecalis, MGH2, read-out: minimum inhibiting concentration (MIC)
Excerpt: as §1, §2

Strep. pheumoniae SV-1 = test: in vitro antibacterial activity, microtitration dilution (MIC), Strep. pneumoniae SV-1; assay type: cell-based; conditions: Streptococcus pneumoniae, SV1, read-out: minimum inhibiting concentration (MIC)
Excerpt: as §1, §2

Strep. pyogenes C-203 [1] = test: in vitro antibacterial activity, microtitration dilution (MIC), Strep. pyogenes C-203; assay type: cell-based; conditions: Streptococcus pyogenes, C203, read-out: minimum inhibiting concentration (MIC)
Excerpt: as §1, §2

Strep. pyogenes C-203 [2] = test: median protective dose in mice given lethal systemic infections, Strep. pyogenes C-203; assay type: in vivo; conditions: Streptococcus pyogenes, single dose at time of challenge, read-out: median protective dose (PD50)
Method: The in vivo activity is obtained when the compounds are tested according to the procedure of Miller, et al (Proc. Soc. Exp. Biol. Med. 57, 261, 1944). The median protective dose (PD50) was determined in mice given lethal systemic infections. Single doses of compound were given at time of challenge.
as §2
The in vivo data as PD50 s are reported below the line of MICs for the same compound.

Esch. coli Vogel = test: in vitro antibacterial activity, microtitration dilution (MIC), Esch. coli Vogel; assay type: cell-based; conditions: Escherichia coli, read-out: minimum inhibiting concentration (MIC)
Excerpt: as §1, §2

Row | SMILES | MIC (Ent. cloacae MA2646) | MIC (Klebs. pneumoniae MGH-2) | MIC (Prot. rettgeri M 1771) | MIC (Pseud. aeruginosa UI-18) | MIC (Staph. aureus H 228) | MIC (Staph. aureus UC-76) | MIC (Strep. faecalis MGH-2) | MIC (Strep. pheumoniae SV-1) | MIC (Strep. pyogenes C-203 [1]) | ED50 (Strep. pyogenes C-203 [2]; C203, PO) | ED50 (Strep. pyogenes C-203 [2]; C203, SC) | MIC (Esch. coli Vogel)
1 | CN[C@@H](C)[C@@H]1CCN(c2cc3c(c(C)c2F)c(=O)c(C(=O)O)cn3C2CC2)C1 [Example 67, 3R,1S-1-cyclopropyl-6-fluoro-1,4-dihydro-5-methyl-7-[3-[1-(methylamino)ethyl]-1-pyrrolidinyl]-4-oxo-3-quinolinecarboxylic acid, monohydrochloride] | 0.4 µg/mL | 0.8 µg/mL | 1.6 µg/mL | 3.1 µg/mL | 0.05 µg/mL | 0.013 µg/mL | 0.1 µg/mL | 0.013 µg/mL | 0.025 µg/mL | 29 mg/kg | 3 mg/kg | –
2 | CN[C@@H](C)[C@H]1CCN(c2nc3c(cc2F)c(=O)c(C(=O)O)cn3C2CC2)C1 [Example 24, 3S,1S-1-cyclopropyl-6-fluoro-7-[3-(1-N-methylaminoethyl)-1-pyrrolidinyl]-1,4-dihydro-4-oxo-1,8-naphthyridine-3-carboxylic acid] | 0.4 µg/mL (≈ 1.07 µM) | 0.4 µg/mL (≈ 1.07 µM) | 0.8 µg/mL (≈ 2.14 µM) | 3.1 µg/mL (≈ 8.28 µM) | 0.8 µg/mL (≈ 2.14 µM) | 0.2 µg/mL (≈ 0.534 µM) | 0.8 µg/mL (≈ 2.14 µM) | 0.4 µg/mL (≈ 1.07 µM) | 0.4 µg/mL (≈ 1.07 µM) | – | – | 0.2 µg/mL (≈ 0.534 µM)
3 | COc1c(N2CC[C@@H]([C@@H](C)N)C2)c(F)cc2c(=O)c(C(=O)O)cn(C3CC3)c12 [Example 45, 3R,1R-7-[3-(1-aminoethyl)-1-pyrrolidinyl]-1-cyclopropyl-6-fluoro-1,4-dihydro-8-methoxy-4-oxo-3-quinolinecarboxylic acid] | 0.05 µg/mL (≈ 0.128 µM) | 0.1 µg/mL (≈ 0.257 µM) | 0.2 µg/mL (≈ 0.514 µM) | 0.8 µg/mL (≈ 2.05 µM) | 0.25 µg/mL (≈ 0.642 µM) | ≤ 0.03 µg/mL | 0.025 µg/mL (≈ 0.0642 µM) | 0.013 µg/mL (≈ 0.0334 µM) | 0.013 µg/mL (≈ 0.0334 µM) | – | – | 0.05 µg/mL (≈ 0.128 µM)
4 | Cc1c(F)c(N2CC[C@@H]([C@H](C)N)C2)cc2c1c(=O)c(C(=O)O)cn2C1CC1 [Example 47, 3R,1S-7-[3-(1-aminoethyl)-1-pyrrolidinyl]-1-cyclopropyl-6-fluoro-1,4-dihydro-5-methyl-4-oxo-3-quinolinecarboxylic acid] | 0.1 µg/mL (≈ 0.268 µM) | 0.1 µg/mL (≈ 0.268 µM) | 0.2 µg/mL (≈ 0.536 µM) | 0.8 µg/mL (≈ 2.14 µM) | 0.025 µg/mL (≈ 0.0669 µM) | 0.003 µg/mL (≈ 0.00803 µM) | 0.025 µg/mL (≈ 0.0669 µM) | 0.003 µg/mL (≈ 0.00803 µM) | 0.003 µg/mL (≈ 0.00803 µM) | – | – | 0.1 µg/mL (≈ 0.268 µM)
5 | CN[C@@H](C)[C@H]1CCN(c2c(F)c(N)c3c(=O)c(C(=O)O)cn(C4CC4)c3c2F)C1 [Example 35, 3S,1S-5-amino-1-cyclopropyl-6,8-difluoro-7-[3-(1-N-methylaminoethyl)-1-pyrrolidinyl]-1,4-dihydro-4-oxo-3-quinolinecarboxylic acid] | 0.2 µg/mL (≈ 0.492 µM) | 0.8 µg/mL (≈ 1.97 µM) | 0.8 µg/mL (≈ 1.97 µM) | 3.1 µg/mL (≈ 7.63 µM) | 0.1 µg/mL (≈ 0.246 µM) | 0.05 µg/mL (≈ 0.123 µM) | 0.2 µg/mL (≈ 0.492 µM) | 0.2 µg/mL (≈ 0.492 µM) | 0.2 µg/mL (≈ 0.492 µM) | – | – | 0.2 µg/mL (≈ 0.492 µM)
6 | CCN[C@@H](C)[C@H]1CCN(c2nc3c(cc2F)c(=O)c(C(=O)O)cn3C2CC2)C1 [Example 80, 3S,1S-1-cyclopropyl-7-[3-[1-(ethylamino)ethyl]-1-pyrrolidinyl]-6-fluoro-1,4-dihydro-4-oxo-1,8-naphthyridine-3-carboxylic acid] | 0.2 µg/mL (≈ 0.515 µM) | 0.4 µg/mL (≈ 1.03 µM) | 1.6 µg/mL (≈ 4.12 µM) | 3.1 µg/mL (≈ 7.98 µM) | 0.2 µg/mL (≈ 0.515 µM) | 0.1 µg/mL (≈ 0.257 µM) | 0.2 µg/mL (≈ 0.515 µM) | 0.1 µg/mL (≈ 0.257 µM) | 0.4 µg/mL (≈ 1.03 µM) | – | – | 0.2 µg/mL (≈ 0.515 µM)
7 | CCN[C@H](C)[C@H]1CCN(c2c(F)cc3c(=O)c(C(=O)O)cn(C4CC4)c3c2OC)C1 [Example 19, 3S,1R-1-cyclopropyl-6-fluoro-7-[3-(1-N-ethylaminoethyl)1-pyrrolidinyl]-8-methoxy-1,4-dihydro-4-oxo-3-quinolinecarboxylic acid] | 0.4 µg/mL (≈ 0.958 µM) | 0.8 µg/mL (≈ 1.92 µM) | 1.6 µg/mL (≈ 3.83 µM) | 6.3 µg/mL (≈ 15.1 µM) | 0.1 µg/mL (≈ 0.24 µM) | 0.05 µg/mL (≈ 0.12 µM) | 0.1 µg/mL (≈ 0.24 µM) | 0.013 µg/mL (≈ 0.0311 µM) | 0.025 µg/mL (≈ 0.0599 µM) | – | – | 0.4 µg/mL (≈ 0.958 µM)
8 | CN[C@@H](C)[C@@H]1CCN(c2c(F)c(C)c3c(=O)c(C(=O)O)cn(C4CC4)c3c2OC)C1 [Example 61, 3R,1S-1-cyclopropyl-6-fluoro-7-[3-(1-N-methylaminoethyl)-1-pyrrolidinyl]-5-methyl-8-methoxy-1,4-dihydro-4-oxo-3-quinolinecarboxylic acid] | 0.1 µg/mL (≈ 0.24 µM) | 0.2 µg/mL (≈ 0.479 µM) | 0.4 µg/mL (≈ 0.958 µM) | 1.6 µg/mL (≈ 3.83 µM) | 0.006 µg/mL (≈ 0.0144 µM) | ≤ 0.003 µg/mL | 0.025 µg/mL (≈ 0.0599 µM) | ≤ 0.003 µg/mL | ≤ 0.003 µg/mL | – | – | 0.1 µg/mL (≈ 0.24 µM)
9 | CN[C@H](C)[C@@H]1CCN(c2cc3c(c(C)c2F)c(=O)c(C(=O)O)cn3-c2ccc(F)cc2F)C1 [Example 63] | 0.4 µg/mL (≈ 0.871 µM) | 0.4 µg/mL (≈ 0.871 µM) | 0.8 µg/mL (≈ 1.74 µM) | 3.1 µg/mL (≈ 6.75 µM) | 0.1 µg/mL (≈ 0.218 µM) | 0.05 µg/mL (≈ 0.109 µM) | 0.2 µg/mL (≈ 0.435 µM) | 0.2 µg/mL (≈ 0.435 µM) | 0.2 µg/mL (≈ 0.435 µM) | – | – | 0.4 µg/mL (≈ 0.871 µM)
10 | COc1c(N2CC[C@@H]([C@H](C)N)C2)c(F)c(N)c2c(=O)c(C(=O)O)cn(C3CC3)c12 [Example 59, 3R,1S-5-amino-7-[3-(1-aminoethyl)-1-pyrrolidinyl]-1-cyclopropyl-6-fluoro-1,4-dihydro-8-methoxy-4-oxo-3-quinolinecarboxylic acid] | 0.05 µg/mL (≈ 0.124 µM) | 0.1 µg/mL (≈ 0.247 µM) | 0.1 µg/mL (≈ 0.247 µM) | 0.8 µg/mL (≈ 1.98 µM) | 0.006 µg/mL (≈ 0.0148 µM) | 0.003 µg/mL (≈ 0.00742 µM) | 0.006 µg/mL (≈ 0.0148 µM) | 0.003 µg/mL (≈ 0.00742 µM) | 0.003 µg/mL (≈ 0.00742 µM) | – | – | 0.05 µg/mL (≈ 0.124 µM)
11 | CN[C@H](C)[C@H]1CCN(c2nc3c(cc2F)c(=O)c(C(=O)O)cn3C2CC2)C1 [Example 23, 3S,1R-1-cyclopropyl-6-fluoro-7-[3-(1-N-methylaminoethyl)-1-pyrrolidinyl]-1,4-dihydro-4-oxo-1,8-naphthyridine-3-carboxylic acid] | 0.1 µg/mL (≈ 0.267 µM) | 0.2 µg/mL (≈ 0.534 µM) | 0.8 µg/mL (≈ 2.14 µM) | 1.6 µg/mL (≈ 4.27 µM) | 0.2 µg/mL (≈ 0.534 µM) | 0.05 µg/mL (≈ 0.134 µM) | 0.2 µg/mL (≈ 0.534 µM) | 0.1 µg/mL (≈ 0.267 µM) | 0.1 µg/mL (≈ 0.267 µM) | – | – | 0.1 µg/mL (≈ 0.267 µM)
12 | CCN[C@H](C)[C@@H]1CCN(c2nc3c(cc2F)c(=O)c(C(=O)O)cn3-c2ccc(F)cc2F)C1 [Example 51, 3R,1R-7-[3-(1-N-ethylaminoethyl)-1-pyrrolidinyl]-1-(2,4-difluorophenyl)-6-fluoro-1,4-dihydro-4-oxo-1,8-naphthyridine-3-carboxylic acid] | 0.8 µg/mL (≈ 1.74 µM) | 1.6 µg/mL (≈ 3.47 µM) | 3.1 µg/mL (≈ 6.73 µM) | > 3.1 µg/mL | 0.2 µg/mL (≈ 0.434 µM) | 0.05 µg/mL (≈ 0.109 µM) | 0.4 µg/mL (≈ 0.869 µM) | 0.2 µg/mL (≈ 0.434 µM) | 0.2 µg/mL (≈ 0.434 µM) | – | – | 0.8 µg/mL (≈ 1.74 µM)
